Patent publication US8952034B2, “Fused heterocyclic compounds as ion channel modulators” (Gilead Sciences, Inc., priority 2009, dated 2015)

Biological target: wild-type human cardiac sodium channel, hNav1.5 (Homo sapiens, UniProt Q14524)
Assay: Late INa screening assay (automated whole cell patch clamp, PatchXpress)
Assay type: cell-based
Conditions: compound at 1 μM; HEK293 cells expressing hNav1.5; late INa generated with 10 μM Tefluthrin (or 50 nM ATX II); read-out: LateINa_1 uM (percent block of late INa)
Method in brief: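 Late sodium current through wild-type human hNav1.5 stably expressed in HEK293 cells (no beta subunits) was recorded by automated whole-cell patch clamp on a PatchXpress 7000A at 24-27° C. Late INa was induced with 10 μM Tefluthrin or 50 nM ATX II. Cells were stepped from −120 mV to −20 mV for 250 ms at 0.1 Hz, and percent block was normalized to current in Na-free extracellular solution.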

Chain of wild-type human cardiac sodium channel, hNav1.5 (Q14524 whole entry): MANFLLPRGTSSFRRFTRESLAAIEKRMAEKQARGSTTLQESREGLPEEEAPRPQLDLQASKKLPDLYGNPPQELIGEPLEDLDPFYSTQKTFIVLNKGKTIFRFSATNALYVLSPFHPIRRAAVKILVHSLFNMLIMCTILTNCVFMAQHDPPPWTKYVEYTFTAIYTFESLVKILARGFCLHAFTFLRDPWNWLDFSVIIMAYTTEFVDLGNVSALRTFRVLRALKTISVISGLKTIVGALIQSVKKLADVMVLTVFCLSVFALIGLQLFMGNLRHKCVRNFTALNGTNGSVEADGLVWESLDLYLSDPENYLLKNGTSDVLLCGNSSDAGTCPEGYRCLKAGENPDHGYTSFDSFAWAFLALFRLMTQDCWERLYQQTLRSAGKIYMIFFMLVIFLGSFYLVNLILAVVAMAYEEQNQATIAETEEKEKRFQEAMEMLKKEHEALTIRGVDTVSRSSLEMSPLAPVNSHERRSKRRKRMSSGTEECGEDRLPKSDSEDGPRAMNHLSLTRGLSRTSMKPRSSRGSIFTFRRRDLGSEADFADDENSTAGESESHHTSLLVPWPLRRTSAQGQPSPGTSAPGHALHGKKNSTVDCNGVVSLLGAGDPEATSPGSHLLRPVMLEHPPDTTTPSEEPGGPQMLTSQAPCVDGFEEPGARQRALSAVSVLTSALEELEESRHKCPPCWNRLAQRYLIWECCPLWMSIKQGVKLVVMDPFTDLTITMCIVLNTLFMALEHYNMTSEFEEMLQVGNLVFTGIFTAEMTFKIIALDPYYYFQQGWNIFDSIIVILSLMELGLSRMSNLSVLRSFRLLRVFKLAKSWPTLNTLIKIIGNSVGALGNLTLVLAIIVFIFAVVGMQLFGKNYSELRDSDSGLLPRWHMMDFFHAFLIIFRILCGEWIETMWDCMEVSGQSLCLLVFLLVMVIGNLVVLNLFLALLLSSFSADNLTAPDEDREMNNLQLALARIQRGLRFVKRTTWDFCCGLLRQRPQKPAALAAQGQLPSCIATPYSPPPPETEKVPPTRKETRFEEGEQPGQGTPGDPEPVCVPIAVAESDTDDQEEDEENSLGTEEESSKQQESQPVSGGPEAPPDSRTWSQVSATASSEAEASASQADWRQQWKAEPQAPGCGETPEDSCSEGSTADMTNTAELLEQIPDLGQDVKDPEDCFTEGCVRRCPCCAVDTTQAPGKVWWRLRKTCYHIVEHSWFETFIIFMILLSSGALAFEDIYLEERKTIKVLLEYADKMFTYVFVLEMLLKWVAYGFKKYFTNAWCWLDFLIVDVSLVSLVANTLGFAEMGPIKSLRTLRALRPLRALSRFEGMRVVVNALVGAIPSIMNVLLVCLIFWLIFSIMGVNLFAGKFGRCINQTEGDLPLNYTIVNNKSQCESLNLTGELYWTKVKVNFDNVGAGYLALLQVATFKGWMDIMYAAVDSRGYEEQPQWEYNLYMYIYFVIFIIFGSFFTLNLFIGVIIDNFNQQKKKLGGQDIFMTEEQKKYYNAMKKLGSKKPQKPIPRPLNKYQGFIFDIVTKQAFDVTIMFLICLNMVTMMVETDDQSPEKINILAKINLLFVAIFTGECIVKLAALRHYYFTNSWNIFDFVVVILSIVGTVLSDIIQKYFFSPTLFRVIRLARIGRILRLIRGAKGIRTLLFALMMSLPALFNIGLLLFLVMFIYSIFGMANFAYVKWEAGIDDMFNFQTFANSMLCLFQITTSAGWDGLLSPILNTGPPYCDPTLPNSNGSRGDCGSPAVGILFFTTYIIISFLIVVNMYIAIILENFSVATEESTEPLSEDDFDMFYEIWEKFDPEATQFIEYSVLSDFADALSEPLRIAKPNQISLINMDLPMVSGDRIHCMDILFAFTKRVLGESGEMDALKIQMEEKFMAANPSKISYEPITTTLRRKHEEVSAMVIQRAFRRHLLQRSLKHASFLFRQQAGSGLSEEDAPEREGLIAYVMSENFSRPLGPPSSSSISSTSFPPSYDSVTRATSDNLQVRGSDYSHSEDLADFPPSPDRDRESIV

Question: How did the inhibition at 1 µM turn out when `Cc1ccc(C)c(OCC(O)COCC(F)(F)c2nnc3ccc(-c4ccc(OC(F)(F)F)cc4)cn23)c1` (centres unmarked) [BHN-274, 1-(2,2-difluoro-2-{6-[4-(trifluoromethoxy)phenyl][1,2,4]triazolo[4,3-a]pyridin-3-yl}ethoxy)-3-(2,5-dimethylphenoxy)propan-2-ol] was run?
Answer: 38.9%

Question: Which inhibition at 1 µM does the source give for `FC(F)(F)c1nnc2ccc(-c3ccc(NC(c4ccccc4)C(F)(F)F)cc3)cn12` (centres unmarked) [BHN-123, 4-[3-(trifluoromethyl)[1,2,4]triazolo[4,3-a]pyridin-6-yl]-N-(2,2,2-trifluoro-1-phenylethyl)aniline] here?
Answer: 23.4%

Question: Which inhibition at 1 µM does the source give for `FC(F)(F)Oc1ccc(-c2ccc3nnc(-c4ccccc4)n3c2)cc1` [BHN-21, 3-phenyl-6-[4-(trifluoromethoxy)phenyl][1,2,4]triazolo[4,3-a]pyridine] here?
Answer: 65.2%

Question: `CS(=O)(=O)NCC(F)(F)c1nnc2ccc(-c3ccc(OC(F)(F)F)cc3)cn12` [BHN-175, N-(2,2-difluoro-2-{6-[4-(trifluoromethoxy)phenyl][1,2,4]triazolo[4,3-a]pyridin-3-yl}ethyl)methanesulfonamide] was tested. Which inhibition at 1 µM did it give?
Answer: 16.3%

Question: For `FC(F)(F)Oc1ccc(-c2ccc3nnc(Sc4ccccc4)n3c2)cc1` [BHN-170, 3-(phenylsulfanyl)-6-[4-(trifluoromethoxy)phenyl][1,2,4]triazolo[4,3-a]pyridine], which inhibition at 1 µM is on record?
Answer: 66.2%

Question: For `N#Cc1cc(Cl)ccc1Nc1ccc(-c2ccc3nnc(C(F)(F)F)n3c2)cc1` [BHN-276, 5-chloro-2-({4-[3-(trifluoromethyl)[1,2,4]triazolo[4,3-a]pyridin-6-yl]phenyl}amino)benzonitrile], which inhibition at 1 µM is on record?
Answer: 16.2%

Question: With `COCCOC(F)(F)c1nnc2ccc(-c3ccc(OC(F)(F)F)cc3)cn12` [BHN-141, 3-[difluoro(2-methoxyethoxy)methyl]-6-[4-(trifluoromethoxy)phenyl][1,2,4]triazolo[4,3-a]pyridine] as the molecule, how does the inhibition at 1 µM read?
Answer: 32.5%

Question: `FC(F)(F)Oc1ccc(-c2ccc3nnc(C(F)(F)OCc4noc(-c5ccccc5)n4)n3c2)cc1` [BHN-323, 3-{difluoro[(5-phenyl-1,2,4-oxadiazol-3-yl)methoxy]methyl}-6-[4-(trifluoromethoxy)phenyl][1,2,4]triazolo[4,3-a]pyridine] was tested. Which inhibition at 1 µM did it give?
Answer: 73%

Question: With `FC(F)(F)Oc1ccc(-c2ccc3nnnn3c2)cc1` [BHN-98, 6-[4-(trifluoromethoxy)phenyl]tetrazolo[1,5-a]pyridine] as the molecule, how does the inhibition at 1 µM read?
Answer: 54.1%

Question: Which inhibition at 1 µM does the source give for `COc1cc(OC(F)(F)F)ccc1-c1ccc2nnc(C(F)(F)F)n2c1` [BHN-152, 6-[2-methoxy-4-(trifluoromethoxy)phenyl]-3-(trifluoromethyl)[1,2,4]triazolo[4,3-a]pyridine] here?
Answer: 71.8%

Question: Which inhibition at 1 µM does the source give for `O=C(NCC(F)(F)c1nnc2ccc(-c3ccc(OC(F)(F)F)cc3)cn12)c1ccccc1` [BHN-243, N-(2,2-difluoro-2-{6-[4-(trifluoromethoxy)phenyl][1,2,4]triazolo[4,3-a]pyridin-3-yl}ethyl)benzamide] here?
Answer: 21%

Question: With `COCc1c(-c2ccc(OC(F)(F)F)cc2)ccc2nnc(C(F)(F)F)n12` [BHN-277, 5-(methoxymethyl)-6-[4-(trifluoromethoxy)phenyl]-3-(trifluoromethyl)[1,2,4]triazolo[4,3-a]pyridine] as the molecule, how does the inhibition at 1 µM read?
Answer: 38%

Question: For `FC(F)(F)Oc1ccc(-c2ccc3nnc(C(F)(F)OCC4CC4)n3c2)cc1` [BHN-214, 3-[(cyclopropylmethoxy)(difluoro)methyl]-6-[4-(trifluoromethoxy)phenyl][1,2,4]triazolo[4,3-a]pyridine], which inhibition at 1 µM is on record?
Answer: 80.8%

Question: How did the inhibition at 1 µM turn out when `N#Cc1nc(C(F)(F)F)n2cc(-c3ccc(OC(F)(F)F)cc3)ccc12` [BHN-117, 6-[4-(trifluoromethoxy)phenyl]-3-(trifluoromethyl)imidazo[1,5-a]pyridine-1-carbonitrile] was run?
Answer: 66.3%

Question: `N#CC1(c2ccc(-c3ccc4nnc(C(F)(F)F)n4c3)cc2)CCCC1` [BHN-135, 1-{4-[3-(trifluoromethyl)[1,2,4]triazolo[4,3-a]pyridin-6-yl]phenyl}cyclopentanecarbonitrile] was tested. Which inhibition at 1 µM did it give?
Answer: 49.2%

Question: How did the inhibition at 1 µM turn out when `FC(F)c1nnc2ccc(-c3ccc(OC(F)(F)F)cc3)nn12` [BHN-12, 3-(difluoromethyl)-6-[4-(trifluoromethoxy)phenyl][1,2,4]triazolo[4,3-b]pyridazine] was run?
Answer: 39.6%

Question: For `Fc1ccc(COCc2nnc3ccc(-c4ccc(OC(F)(F)F)cc4)cn23)c(F)c1` [BHN-240, 3-{[(2,4-difluorobenzyl)oxy]methyl}-6-[4-(trifluoromethoxy)phenyl][1,2,4]triazolo[4,3-a]pyridine], which inhibition at 1 µM is on record?
Answer: 83.4%

Question: `Cc1nc(COC(F)(F)c2nnc3ccc(-c4ccc(OC(F)(F)F)cc4)cn23)no1` [BHN-147, 3-{difluoro[(5-methyl-1,2,4-oxadiazol-3-yl)methoxy]methyl}-6-[4-(trifluoromethoxy)phenyl][1,2,4]triazolo[4,3-a]pyridine] was tested. Which inhibition at 1 µM did it give?
Answer: 29.1%

Question: Which inhibition at 1 µM does the source give for `FC(F)(F)Oc1ccc(-c2ccc3nnc(C(F)(F)OCc4coc(-c5ccccc5)n4)n3c2)cc1` [BHN-299, 3-{difluoro[(2-phenyl-1,3-oxazol-4-yl)methoxy]methyl}-6-[4-(trifluoromethoxy)phenyl][1,2,4]triazolo[4,3-a]pyridine] here?
Answer: 51.1%

Question: Which inhibition at 1 µM does the source give for `OC1(COC(F)(F)c2nnc3ccc(-c4ccc(OC(F)(F)F)cc4)cn23)CCC1` [BHN-248, 1-[(difluoro{6-[4-(trifluoromethoxy)phenyl][1,2,4]triazolo[4,3-a]pyridin-3-yl}methoxy)methyl]cyclobutanol] here?
Answer: 50.2%

Question: With `FC(F)(F)Oc1ccc(-c2ccc3nnc(-c4ccc(OC(F)(F)F)cc4)n3c2)cc1` [BHN-55, 3,6-bis[4-(trifluoromethoxy)phenyl][1,2,4]triazolo[4,3-a]pyridine] as the molecule, how does the inhibition at 1 µM read?
Answer: 89.1%

Question: `FC(F)(F)Oc1ccc(-c2ccc3nnc(C(F)(F)OCc4cccc(-c5cccnc5)c4)n3c2)cc1` [BHN-306, 3-(difluoro{[3-(pyridin-3-yl)benzyl]oxy}methyl)-6-[4-(trifluoromethoxy)phenyl][1,2,4]triazolo[4,3-a]pyridine] was tested. Which inhibition at 1 µM did it give?
Answer: 49.7%

Question: How did the inhibition at 1 µM turn out when `FC(F)(F)Oc1ccc(-c2ccc3nnc(C(F)(F)COCc4ccccn4)n3c2)cc1` [BHN-172, 3-[1,1-difluoro-2-(pyridin-2-ylmethoxy)ethyl]-6-[4-(trifluoromethoxy)phenyl][1,2,4]triazolo[4,3-a]pyridine] was run?
Answer: 30.7%

Question: `COCC(F)(F)c1nnc2ccc(-c3ccc(OC(F)(F)F)cc3C)cn12` [BHN-200, 3-(1,1-difluoro-2-methoxyethyl)-6-[2-methyl-4-(trifluoromethoxy)phenyl][1,2,4]triazolo[4,3-a]pyridine] was tested. Which inhibition at 1 µM did it give?
Answer: 40.8%

Question: For `CCOC(=O)c1cccc(-c2nnc3ccc(-c4ccc(OC(F)(F)F)cc4)cn23)c1` [BHN-87, ethyl 3-{6-[4-(trifluoromethoxy)phenyl][1,2,4]triazolo[4,3-a]pyridin-3-yl}benzoate], which inhibition at 1 µM is on record?
Answer: 38.9%

Question: With `FC(F)(F)Cc1nnc2ccc(-c3ccc(Oc4ccccc4)cc3)nn12` [BHN-31, 6-(4-phenoxyphenyl)-3-(2,2,2-trifluoroethyl)[1,2,4]triazolo[4,3-b]pyridazine] as the molecule, how does the inhibition at 1 µM read?
Answer: 57.5%

Question: How did the inhibition at 1 µM turn out when `Cc1nn(-c2ccccc2)nc1COC(F)(F)c1nnc2ccc(-c3ccc(OC(F)(F)F)cc3)cn12` [BHN-300, 3-{difluoro[(5-methyl-2-phenyl-2H-1,2,3-triazol-4-yl)methoxy]methyl}-6-[4-(trifluoromethoxy)phenyl][1,2,4]triazolo[4,3-a]pyridine] was run?
Answer: 63%

Question: Which inhibition at 1 µM does the source give for `FC(F)(F)c1nnc2ccc(-c3ccc(Oc4ccc(Cl)cc4)cc3)nn12` [BHN-236, 6-[4-(4-chlorophenoxy)phenyl]-3-(trifluoromethyl)[1,2,4]triazolo[4,3-b]pyridazine] here?
Answer: 40%

Question: For `Fc1cc(-c2ccc3nnc(C(F)F)n3n2)ccc1OC(F)(F)F` [BHN-253, 3-(difluoromethyl)-6-[3-fluoro-4-(trifluoromethoxy)phenyl][1,2,4]triazolo[4,3-b]pyridazine], which inhibition at 1 µM is on record?
Answer: 39.4%

Question: For `FC1(F)CCN(c2nnc3ccc(-c4ccc(OC(F)(F)F)cc4)cn23)CC1` [BHN-260, 3-(4,4-difluoropiperidin-1-yl)-6-[4-(trifluoromethoxy)phenyl][1,2,4]triazolo[4,3-a]pyridine], which inhibition at 1 µM is on record?
Answer: 38.5%

Same assay, conditions: compound at 10 μM; HEK293 cells expressing hNav1.5; late INa generated with 10 μM Tefluthrin (or 50 nM ATX II); read-out: LateINa_10 uM (percent block of late INa)

Question: With `FC(F)(F)Oc1ccc(-c2ccc3nnc(-c4ccccc4)n3c2)cc1` [BHN-21, 3-phenyl-6-[4-(trifluoromethoxy)phenyl][1,2,4]triazolo[4,3-a]pyridine] as the molecule, how does the inhibition at 10 µM read?
Answer: 86.5%

Question: How did the inhibition at 10 µM turn out when `Cc1nnc2c(N)cc(-c3ccc(OC(F)(F)F)cc3)cn12` [BHN-69, 3-methyl-6-[4-(trifluoromethoxy)phenyl][1,2,4]triazolo[4,3-a]pyridin-8-amine] was run?
Answer: 32.1%

Question: For `FC(F)c1nnc2ccc(-c3ccc(OC(F)(F)F)cc3)nn12` [BHN-12, 3-(difluoromethyl)-6-[4-(trifluoromethoxy)phenyl][1,2,4]triazolo[4,3-b]pyridazine], which inhibition at 10 µM is on record?
Answer: 79.7%

Question: With `FC(F)(F)c1nnc2ccc(-c3ccc(C4CC4)nc3)cn12` [BHN-88, 6-(6-cyclopropylpyridin-3-yl)-3-(trifluoromethyl)[1,2,4]triazolo[4,3-a]pyridine] as the molecule, how does the inhibition at 10 µM read?
Answer: 36%

Question: `FC(F)(F)Oc1ccc(-c2ccc3nnc(C(F)(F)F)n3c2)cc1CN1CCOCC1` [BHN-72, 6-[3-(morpholin-4-ylmethyl)-4-(trifluoromethoxy)phenyl]-3-(trifluoromethyl)[1,2,4]triazolo[4,3-a]pyridine] was tested. Which inhibition at 10 µM did it give?
Answer: 26.7%

Question: How did the inhibition at 10 µM turn out when `FC(F)(F)Oc1ccc(-c2ccc3nnc(-c4ccc(OC(F)(F)F)cc4)n3c2)cc1` [BHN-55, 3,6-bis[4-(trifluoromethoxy)phenyl][1,2,4]triazolo[4,3-a]pyridine] was run?
Answer: 90.7%

Question: Which inhibition at 10 µM does the source give for `CC(C)(C)c1nnc2ccc(-c3ccc(Oc4ccccc4)cc3)nn12` [BHN-35, 3-tert-butyl-6-(4-phenoxyphenyl)[1,2,4]triazolo[4,3-b]pyridazine] here?
Answer: 68.6%

Question: For `Cc1c(-c2ccc(C(F)(F)F)cc2)ccc2ncnn12` [BHN-350, 5-methyl-6-[4-(trifluoromethyl)phenyl][1,2,4]triazolo[1,5-a]pyridine], which inhibition at 10 µM is on record?
Answer: 44.5%

Question: For `CC(C)(C)c1nnc2ccc(-c3ccc(OCC(F)(F)F)cc3)nn12` [BHN-36, 3-tert-butyl-6-[4-(2,2,2-trifluoroethoxy)phenyl][1,2,4]triazolo[4,3-b]pyridazine], which inhibition at 10 µM is on record?
Answer: 64.5%

Question: How did the inhibition at 10 µM turn out when `CCOC(=O)c1cccc(-c2nnc3ccc(-c4ccc(OC(F)(F)F)cc4)cn23)c1` [BHN-87, ethyl 3-{6-[4-(trifluoromethoxy)phenyl][1,2,4]triazolo[4,3-a]pyridin-3-yl}benzoate] was run?
Answer: 72.2%

Question: How did the inhibition at 10 µM turn out when `FC(F)(F)Cc1nnc2ccc(-c3ccc(Oc4ccccc4)cc3)nn12` [BHN-31, 6-(4-phenoxyphenyl)-3-(2,2,2-trifluoroethyl)[1,2,4]triazolo[4,3-b]pyridazine] was run?
Answer: 82.6%
